Measurements reported in ChEMBL document CHEMBL3885861, “Open TG-GATES”.

Species: Rattus norvegicus
Assay: Open TG-GATES - Regimen: Single
Assay type: toxicity, organism-based, Sprague-Dawley
Parameters: regimen Single, gender Male, age 6 weeks
Conditions: in vivo, iv, 30 mg/kg, route intravenous injection, dose level Middle; for APTT / Bas / Eos / Fbg / Hb / Ht / Lym / MCV / Mono / PT / Plat / RBC / Ret / WBC / MCHC / Neu: tissue Blood; for KIDNEY_L / KIDNEY_R / KIDNEY_TOTAL: tissue Kidney; for LIVER: tissue Liver; for ALP / ALT / BUN / CRE / DBIL / GLC / IP / K / LDH / PL / RALB / TBIL / TC / TG / TP / gamma-GTP / AST / Na: tissue Plasma

## CARBOPLATIN
3 h
  APTT: 23.3 s
  Bas: 0%
  Eos: 1%
  Fbg: 273.2 mg/dL
  Hb: 13 g/dL
  Ht: 40.3%
  Lym: 81.8%
  MCV: 63.6 fL
  Mono: 2.4%
  PT: 15.6 s
  Plat: 123.8 x10_4/uL
  RBC: 633.4 x10_4/ul
  Ret: 5.6%
  WBC: 77.3 x10_2/uL
  KIDNEY_L: 0.9 g
  KIDNEY_R: 0.9 g
  KIDNEY_TOTAL: 1.9 g
  LIVER: 9.5 g
  ALP: 1595 IU/L
  ALT: 41.4 IU/L
  BUN: 11 mg/dL
  CRE: 0.2 mg/dL
  DBIL: 0 mg/dL
  GLC: 175 mg/dL
  IP: 8.6 mg/dL
  K: 4 meq/L
  LDH: 183.4 IU/L
  PL: 126.6 mg/dL
  RALB: 3 g/dL
  TBIL: 0.014 mg/dL
  TC: 67 mg/dL
  TG: 75 mg/dL
  TP: 5.4 g/dL
  gamma-GTP: 1.2 IU/L
6 h
  APTT: 22.6 s
  Bas: 0%
  Eos: 0.8%
  Fbg: 273.4 mg/dL
  Hb: 12.8 g/dL
  Ht: 39.7%
  Lym: 77.4%
  MCHC: 32.2%
  MCV: 63.8 fL
  Mono: 4%
  Neu: 16.6%
  PT: 15.9 s
  Plat: 120 x10_4/uL
  RBC: 623.2 x10_4/ul
  Ret: 6.3%
  WBC: 102.3 x10_2/uL
  KIDNEY_L: 0.9 g
  KIDNEY_R: 0.9 g
  KIDNEY_TOTAL: 1.8 g
  LIVER: 8.7 g
  ALP: 1276.8 IU/L
  ALT: 42 IU/L
  AST: 77.8 IU/L
  CRE: 0.2 mg/dL
  DBIL: 0 mg/dL
  GLC: 174.6 mg/dL
  IP: 9.6 mg/dL
  K: 4.4 meq/L
  Na: 139.4 meq/L
  PL: 126 mg/dL
  RALB: 2.9 g/dL
  TBIL: 0.012 mg/dL
  TC: 73.4 mg/dL
  TG: 68.6 mg/dL
  TP: 5.3 g/dL
  gamma-GTP: 1 IU/L
9 h
  TERMINAL_BW: 197.2 g
  APTT: 24.3 s
  Bas: 0%
  Eos: 0.6%
  Fbg: 280.2 mg/dL
  Hb: 12.8 g/dL
  Ht: 39.6%
  Lym: 72.2%
  MCHC: 32.4%
  MCV: 62 fL
  Mono: 2.4%
  Neu: 24%
  PT: 15.9 s
  Plat: 119 x10_4/uL
  RBC: 638.6 x10_4/ul
  Ret: 5.9%
  WBC: 68.8 x10_2/uL
  KIDNEY_L: 0.9 g
  KIDNEY_R: 1 g
  KIDNEY_TOTAL: 1.9 g
  LIVER: 7.9 g
  ALP: 1295.4 IU/L
  ALT: 38.8 IU/L
  AST: 81 IU/L
  BUN: 10 mg/dL
  CRE: 0.1 mg/dL
  DBIL: 0 mg/dL
  GLC: 173.6 mg/dL
  IP: 9.7 mg/dL
  K: 4.3 meq/L
  LDH: 182.2 IU/L
  Na: 139.6 meq/L
  PL: 118.8 mg/dL
  RALB: 2.9 g/dL
  TBIL: 0.014 mg/dL
  TC: 63 mg/dL
  TG: 55 mg/dL
  TP: 5.4 g/dL
  gamma-GTP: 1.2 IU/L
24 h
  TERMINAL_BW: 208.3 g
  APTT: 23 s
  Bas: 0%
  Eos: 0.8%
  Fbg: 295.6 mg/dL
  Hb: 12.9 g/dL
  Ht: 39.9%
  Lym: 88.4%
  MCHC: 32.2%
  Mono: 3.4%
  Neu: 6.6%
  PT: 16.1 s
  Plat: 125 x10_4/uL
  RBC: 639.8 x10_4/ul
  Ret: 4.5%
  WBC: 72.2 x10_2/uL
  KIDNEY_L: 0.9 g
  KIDNEY_R: 1 g
  KIDNEY_TOTAL: 1.9 g
  LIVER: 9.3 g
  ALP: 1504.2 IU/L
  ALT: 44.8 IU/L
  AST: 72.8 IU/L
  CRE: 0.2 mg/dL
  DBIL: 0.002 mg/dL
  GLC: 179.6 mg/dL
  IP: 8.1 mg/dL
  K: 4.3 meq/L
  LDH: 211.2 IU/L
  Na: 139.8 meq/L
  PL: 126.6 mg/dL
  RALB: 3 g/dL
  TBIL: 0.02 mg/dL
  TC: 70.4 mg/dL
  TG: 60.4 mg/dL
